Drawing on publication PMC6501643, “Crystal structure of human RIOK2 bound to a specific inhibitor” (Open Biology, 2019), this text covers Kd for one compound.

This test concerns the target T1, RIO kinase 2 (RIOK2) (Homo sapiens, UniProt Q9BVS4).
T1 construct: residues 1–329
The experiment in a line: co-crystal structure ([…] Å) and ITC. It counts as binding.

T1 sequence (Q9BVS4 1-329): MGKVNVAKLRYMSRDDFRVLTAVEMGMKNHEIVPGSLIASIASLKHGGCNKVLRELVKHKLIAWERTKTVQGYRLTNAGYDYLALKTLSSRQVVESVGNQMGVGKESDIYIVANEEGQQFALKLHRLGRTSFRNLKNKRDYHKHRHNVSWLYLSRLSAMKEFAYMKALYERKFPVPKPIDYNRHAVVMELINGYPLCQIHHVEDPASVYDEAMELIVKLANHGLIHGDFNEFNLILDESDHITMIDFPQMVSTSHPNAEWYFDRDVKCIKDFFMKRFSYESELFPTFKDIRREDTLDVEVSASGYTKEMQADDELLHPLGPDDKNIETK

What is called Kd is the free concentration of one partner at which half of the binding sites on the other are occupied at equilibrium, for simple one-to-one binding. A lower Kd goes with a tighter complex. Regarding `O=C(Cc1ccc2ccccc2c1)Nc1ccccn1` [compound 9], the Kd came out at 393 nM.
